Test results published in article PMC12379159 (Journal of Natural Products, 2025).
Residue numbers refer to the chain shown, from its start.

Tests used:
Gal4-hRORγ = target: T1, Gal4-hRORγ (Homo sapiens, UniProt P51449); test: Gal4-RORγ mammalian one-hybrid luciferase assay; format: cell-based; conditions: HEK293 cells
T1 construct: Encodes for a hRORγ-LBD:Gal4-DBD fusion protein; expressed in transfected cells; host or cells: HEK293
T1 sequence (P51449 269-508 limits assumed): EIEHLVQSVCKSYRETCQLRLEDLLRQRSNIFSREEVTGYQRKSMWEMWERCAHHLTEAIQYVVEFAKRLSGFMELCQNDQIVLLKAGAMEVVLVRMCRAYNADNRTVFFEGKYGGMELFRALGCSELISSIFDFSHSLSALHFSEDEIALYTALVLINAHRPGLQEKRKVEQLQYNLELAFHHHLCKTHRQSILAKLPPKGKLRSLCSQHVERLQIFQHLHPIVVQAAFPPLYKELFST
Protocol: (§1) For luciferase assays, 8 × 10^6 HEK293 cells were seeded on 150 mm cell culture dishes and incubated for 5 h. Afterward, cells were transfected with the calcium phosphate coprecipitation method using 5 μg of the nuclear receptor (Gal4-hRORγ or full-length human RORγ), 5 μg of a luciferase reporter (pTK-MH100 × 4-LUC for Gal4-hRORγ experiments or RORE-LUC for full-length human RORγ experiments) and 3 μg eGFP-N1 (for assessing transfection efficiency) plasmid DNA and incubated overnight. […] The medium was changed the following day, and cells were further incubated for another four to 5 h before trypsin/EDTA was added to detach them from the dishes. […] RLUs were normalized to relative fluorescence units (RFU) to account for differences in cell number and transfection efficiency and then normalized to the vehicle control. Results are expressed as fold activation relative to the vehicle control.
(§2) Concentration–response data were analyzed in GraphPad Prism version 10 by three-parameter logistic nonlinear regression, with the Hill slope constrained to a theoretical value of −1.0. An IC50 value was determined only for compounds yielding a statistically reliable fit. […] In these cases, only the maximal inhibition achieved at the highest tested concentration (I max(%) at 5 μM) is reported, calculated as follows: Imax(%)=(1−Bottom/Top)×100 (“top” = baseline activity measured at the lowest concentration, “bottom” = residual activity observed at the highest concentration, corresponding to the maximal inhibitory effect).

full-length human RORγ = target: T2, full-length human RORγ (Homo sapiens, UniProt P51449); test: Full-length RORγ luciferase assay (RORE-LUC reporter); format: cell-based; conditions: HEK293 cells, 5 μM
T2 construct: Encodes for the full-length human RORγ; expressed in transfected cells; host or cells: HEK293
T2 sequence (P51449 1-518): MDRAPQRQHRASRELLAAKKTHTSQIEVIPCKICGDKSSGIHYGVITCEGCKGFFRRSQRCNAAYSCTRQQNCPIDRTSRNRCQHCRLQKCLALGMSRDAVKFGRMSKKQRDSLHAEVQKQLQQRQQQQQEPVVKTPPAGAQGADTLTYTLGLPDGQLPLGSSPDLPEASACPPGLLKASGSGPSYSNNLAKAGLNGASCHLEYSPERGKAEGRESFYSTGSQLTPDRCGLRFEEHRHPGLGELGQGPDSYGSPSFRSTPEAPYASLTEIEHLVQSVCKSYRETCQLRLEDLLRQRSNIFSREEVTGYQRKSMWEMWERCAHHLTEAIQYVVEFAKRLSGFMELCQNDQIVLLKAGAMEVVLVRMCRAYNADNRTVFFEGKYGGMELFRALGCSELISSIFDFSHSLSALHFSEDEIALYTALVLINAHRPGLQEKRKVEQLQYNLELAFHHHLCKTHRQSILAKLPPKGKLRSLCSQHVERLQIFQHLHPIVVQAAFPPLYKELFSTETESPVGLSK
Protocol: as §1, §2

hRORγ LBD = target: T3, hRORγ LBD (Homo sapiens, UniProt P51449); test: Thermal stability by nano differential scanning fluorimetry (nanoDSF); format: binding; conditions: RORγ-LBD with 4 equiv ligand vs without ligand; mean ± SD
T3 construct: His tag (N, cleaved yes); made in house; host or cells: Escherichia coli BL21 DE3
T3 sequence (P51449 264-518): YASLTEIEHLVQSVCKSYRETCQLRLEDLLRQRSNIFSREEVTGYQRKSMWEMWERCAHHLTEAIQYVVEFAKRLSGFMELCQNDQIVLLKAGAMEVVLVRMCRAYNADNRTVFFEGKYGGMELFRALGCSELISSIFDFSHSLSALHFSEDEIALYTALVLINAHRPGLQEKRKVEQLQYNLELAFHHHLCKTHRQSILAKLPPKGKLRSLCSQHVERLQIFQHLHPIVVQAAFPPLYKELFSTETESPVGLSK
Protocol: Soluble proteins were purified on Ni Hitrap FFcrude column (Cytiva), followed by His tag removal by thrombin (MP Biomedicals) cleavage and by size exclusion chromatography on HiLoad Superdex200 column (Cytiva) equilibrated in 20 mM Tris-HCl pH 7.5, 150 mM NaCl, 1 mM TCEP (Hampton Research). Purity and homogeneity of the hRORγ LBD were assessed by SDS-PAGE. The purified protein was concentrated to 0.5–1.0 mg/mL with an Amicon Ultra 10 kDa MWCO. The aliquots of purified LBD were incubated with 4 equiv ligands or vehicle for thermal stability experiments.
Fluorescence-based thermal experiments were performed using a Prometheus NT.48 (NanoTemper Technologies, Germany) with grade standard capillaries containing 10 μL of RORγLBD with different ligands. […] NanoTemper PR. Stability Analysis v1.0.2 was used to fit the data and determine the melting temperatures Tm.

HEK293 cells = test: Resazurin conversion assay in HEK293 cells; format: cell-based, human; conditions: 5 μM, 18 h
Protocol: (§3) To check the metabolic activity of cells correlating with cell viability, cells were treated with the vehicle control (0.1% DMSO), digitonin as the positive control for cytotoxicity at 20 μg/mL (HEK293 cells) or 50 μg/mL (EL-4-mRORγt cells), or the compounds of interest at 5 μM for 18 h (HEK293 cells) or 20–24 h (EL-4-mRORγt cells). The next day, the medium was carefully removed and replaced with stripped DMEM without phenol red, containing 10 μg/mL resazurin sodium salt. Cells were incubated for 5 h before RFU values were measured at λem = 590 nm using a spectrophotometer. Cell viability was calculated as follows: Cell viability(%)=100×RFU value after compound treatment/RFU value after vehicle control treatment Cytotoxicity was defined as cell viability under 70% according to the ISO 10993–5 guidelines. Cell viability <90% is explicitly stated in the respective figure.

EL-4-mRORγt cells = test: Resazurin conversion assay in EL-4-mRORγt cells; format: cell-based, murine; conditions: 5 μM, 20-24 h
Protocol: as §3

[1] = test system: Il17a and Il17f (Il17a/f); test: RT-qPCR of Il17a and Il17f in EL-4-mRORγt cells; format: cell-based, murine; conditions: 5 μM, 20–24 h, then 4.5-h PMA and ionomycin
Protocol: For RT-qPCR assays, 5 × 10^5 EL-4-mRORγt cells were seeded in 500 μL complete DMEM per well of a 24-well plate and treated with the vehicle control, the positive control, or the compounds of interest. After incubation for 20–24 h, cells were stimulated with Cell Activation Cocktail (PMA: 40.5 μM, ionomycin: 669.3 μM; 500X) for 4.5 h. Afterward, total RNA was isolated using the innuPREP RNA Mini Kit 2.0 according to the manufacturer’s instructions. According to the manufacturer’s instructions, 1 μg RNA was reverse-transcribed into cDNA using the High-Capacity cDNA Reverse Transcription Kit. RT-qPCR was performed using the Luna Universal qPCR Master Mix on a LightCycler 480 (Roche Diagnostics, Rotkreuz, Switzerland) according to the manufacturer’s instructions. […] Livak’s 2−ΔΔCt method was employed to determine the expression levels of RORγ target genes. This involved normalizing the target gene expression to the expression levels of the control gene 18s, followed by further normalization to the vehicle control.

Gal4-RORγ H479L = target: T4, Gal4-RORγ H479L (Homo sapiens, UniProt P51449, H479L); test: Gal4-RORγ H479L mutant luciferase assay; conditions: 5 μM
T4 sequence (P51449 269-508 H479L limits assumed): T1 sequence (P51449 269-508 limits assumed) with H211L
Protocol: Gal4-hRORγ H323A and H479L mutants were generated using the QuikChange Lightning Site-Directed Mutagenesis Kit according to the manufacturer’s instructions. Briefly, 10 ng template DNA (Gal4-hRORγ) was PCR-amplified with the respective mutagenic forward and reverse primers listed in Table S3, which were designed using the QuikChange Primer Design tool (https://www.agilent.com/store/primerDesignProgram.jsp). […] Two μL of the PCR product were then transformed into XL1-Blue competent E. coli according to a protocol provided by NEB. […] After centrifuging the main culture at 5691g for 10 min, the supernatant was decanted, and plasmid preparation was performed using the PureLink HiPure Plasmid Midiprep Kit according to the manufacturer’s instructions. DNA yields and purities were checked using a NanoDrop 2000c (Thermo Fisher Scientific, Waltham, MA, USA).

Imax(%) at 5 μM, Gal4-RORγ luciferase assay (Gal4-hRORγ; 5 μM): 47%
IC50 (Gal4-hRORγ; 18 h treatment, up to 5 μM): 1200 nM
Imax(%) at 5 μM, full-length RORγ luciferase assay (full-length human RORγ): 38%
ΔTm measured with nano differential scanning fluorimetry (hRORγ LBD): 9.1 ± 0.2 °C
Activity on Gal4-RORγ H479L vs WT (Gal4-RORγ H479L): notable decrease in activity
SMILES: C=C(C)[C@@H]1CC[C@]2(C(=O)O)CC[C@]3(C)[C@H](CC[C@@H]4[C@@]5(C)CC[C@H](O)C(C)(C)[C@@H]5CC[C@]43C)[C@@H]12 [Betulinic acid, reference compound]
Cytotoxic effects, resazurin conversion assay (HEK293 cells): no cytotoxic effects
Cytotoxic effects, resazurin conversion assay (EL-4-mRORγt cells): no cytotoxic effects
Il17a/f expression [1]: reduction of Il17a/f expression
